# Patent publication US20100063065A1 (Inpharmatica Limited, priority 2005, published 2010)
# Counter-ions that a name gives are not always drawn.
# Biological target: T1, PPARδ (Homo sapiens, UniProt Q03181)
# T1 construct: fused to amino acids 147-441 of PPARδ downstream of CMV promoter; expressed in transfected cells; host or cells: HEK293 cells, transiently transfected with pFACMV-PPARδ using Fugene
# T1 sequence (Q03181 147-441): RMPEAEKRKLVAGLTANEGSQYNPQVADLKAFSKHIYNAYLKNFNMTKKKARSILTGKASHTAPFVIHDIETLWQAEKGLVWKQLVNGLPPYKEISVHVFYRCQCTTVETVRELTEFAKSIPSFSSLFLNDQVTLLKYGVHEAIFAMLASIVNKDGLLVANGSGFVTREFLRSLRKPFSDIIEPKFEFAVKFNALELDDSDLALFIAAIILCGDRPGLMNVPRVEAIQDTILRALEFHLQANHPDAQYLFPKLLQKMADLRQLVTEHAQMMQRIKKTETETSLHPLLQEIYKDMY
# Experiment: Transactivation assay (PPARδ GAL4 assay) in transiently transfected HEK293 cells
# Assay type: cell-based
# Details: luciferase reporter, Table 1
# Summary of the method: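 HEK293 cells transiently co-transfected with GAL4 DBD (aa 1-147)–PPARδ (aa 147-441) fusion and 5×GAL4-luciferase reporter, then exposed 24 h to compound (final 0-30 μM) in OptiMEM at 37° C. Luminescence read; activity as percent of GW501516 control, EC50 from sigmoidal dose-response fit.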
row,Structure (SMILES),EC50
1,"CCc1cc(C(=O)c2ccc(OC(F)(F)F)cc2)c(NC(=O)CNC(CC)C(=O)O)s1 (centres unmarked) [Example 80, 2-({[5-Ethyl-3-(4-trifluoromethoxy-benzoyl)-thiophen-2-ylcarbamoyl]-methyl}-amino)-butyric acid]",< 100 nM
2,"CCc1cc(C(=O)c2ccccc2)c(NC(=O)CC(C)(C)CC(=O)O)s1 [Example 16, 4-(3-Benzoyl-5-ethyl-thiophen-2-ylcarbamoyl)-3,3-dimethyl-butyric acid]",1000 to 30000 nM
3,"CCc1cc(C(=O)c2ccc(Cl)cc2)c(NC(=O)CSC(C)(C)C(=O)O)s1 [Example 24, 2-{[3-(4-Chloro-benzoyl)-5-ethyl-thiophen-2-ylcarbamoyl]-methylsulfanyl}-2-methyl-propionic acid]",100 to 1000 nM
4,"CCc1cc(C(=O)c2ccc(F)c(Cl)c2)c(NC(=O)CC(C)(C)CC(=O)O)s1 [Example 32, 4-[3-(3-Chloro-4-fluoro-benzoyl)-5-ethyl-thiophen-2-ylcarbamoyl]-3,3-dimethyl-butyric acid]",1000 to 30000 nM
5,"CCc1cc(C(=O)c2ccc(OC(F)(F)F)cc2)c(NC(=O)c2ccc(OC(C)(C)C(=O)O)cc2)s1 [Example 102, 2-{4-[5-Ethyl-3-(4-trifluoromethoxy-benzoyl)-thiophen-2-ylcarbamoyl]-phenoxy}-2-methyl-propionic acid]",100 to 1000 nM
6,"CCc1cc(C(=O)c2ccc(F)c(Cl)c2)c(NC(=O)CSCC(=O)O)s1 [Example 31, {[3-(3-Chloro-4-fluoro-benzoyl)-5-ethyl-thiophen-2-ylcarbamoyl]-methylsulfanyl}-acetic acid]",100 to 1000 nM

# Other lines, results leading:
row,EC50,Structure (SMILES)
1,1000 to 30000 nM,"COc1ccc(C(=O)c2cc(Cl)sc2NC(=O)CSCC(=O)O)cc1 [Example 66, {[5-Chloro-3-(4-methoxy-benzoyl)-thiophen-2-ylcarbamoyl]-methylsulfanyl}-acetic acid]"
2,100 to 1000 nM,"CCc1cc(C(=O)c2ccc(C)cc2)c(NC(=O)CSCC(=O)O)s1 [Example 8, {[5-Ethyl-3-(4-methyl-benzoyl)-thiophen-2-ylcarbamoyl]-methylsulfanyl}-acetic acid]"
3,1000 to 30000 nM,"CCc1cc(C(=O)c2ccc(C(C)(C)C)cc2)c(NC(=O)CSCC(=O)O)s1 [Example 50, {[3-(4-tert-Butyl-benzoyl)-5-ethyl-thiophen-2-ylcarbamoyl]-methylsulfanyl}-acetic acid]"
4,< 100 nM,"CCc1cc(C(=O)c2ccc(Br)cc2)c(NC(=O)CSCC(=O)O)s1 [Example 22, {[3-(4-Bromo-benzoyl)-5-ethyl-thiophen-2-ylcarbamoyl]-methylsulfanyl}-acetic acid]"
5,1000 to 30000 nM,"CCc1cc(C(=O)c2ccc(OC)nc2)c(NC(=O)CC2(CC(=O)O)CCCC2)s1 [Example 56, (1-{[5-Ethyl-3-(6-methoxy-pyridine-3-carbonyl)-thiophen-2-ylcarbamoyl]-methyl}-cyclopentyl)-acetic acid]"

# Same assay, conditions: luciferase reporter, Table 2
row,Structure (SMILES),EC50
1,"CCc1cc(C(=O)c2ccc(OC(F)(F)F)cc2)c(NC(=O)CNC2(C(=O)O)CCCC2)s1 [Example 190, 1-({[5-Ethyl-3-(4-trifluoromethoxy-benzoyl)-thiophen-2-ylcarbamoyl]-methyl}-amino)-cyclopentanecarboxylic acid]",< 100 nM
2,"CCc1cc(C(=O)c2ccc(OC(F)(F)F)cc2)c(NC(=O)C(c2ccccc2)N2CCC[C@@H]2C(=O)O)s1 (stereo partly drawn) [Example 124, (R)-1-{[5-Ethyl-3-(4-trifluoromethoxy-benzoyl)-thiophen-2-ylcarbamoyl]-phenyl-methyl}-pyrrolidine-2-carboxylic acid]",100 to 1000 nM
3,"CCc1cc(C(=O)c2ccc(OC(F)(F)F)cc2)c(NC(=O)CN2CCC[C@@H]2C(=O)O)s1 [Example 168, (R)-1-{[5-Ethyl-3-(4-trifluoromethoxy-benzoyl)-thiophen-2-ylcarbamoyl]-methyl}-pyrrolidine-2-carboxylic acid]",100 to 1000 nM
4,"CCc1cc(C(=O)c2nc3ccccc3s2)c(NC(=O)CSCC(=O)O)s1 [Example 139, {[3-(Benzothiazole-2-carbonyl)-5-ethyl-thiophen-2-ylcarbamoyl]-methylsulfanyl}-acetic acid]",1000 to 30000 nM
5,"CCc1cc(C(=O)c2ccc(OC(F)(F)F)cc2)c(NC(=O)CN2CCCC2(C)C(=O)O)s1 (centres unmarked) [Example 173, 1-{[5-Ethyl-3-(4-trifluoromethoxy-benzoyl)-thiophen-2-ylcarbamoyl]-methyl}-2-methyl-pyrrolidine-2-carboxylic acid]",100 to 1000 nM
6,"CCc1cc(C(=O)c2ccc(Cl)cc2)c(NC(=O)CN2[C@@H](C(=O)O)CC[C@@H]2c2ccccc2)s1 [Example 187, (2R,5R)-1-{[3-(4-Chloro-benzoyl)-5-ethyl-thiophen-2-ylcarbamoyl]-methyl}-5-phenyl-pyrrolidine-2-carboxylic acid hydrochloride]",100 to 1000 nM

# The remaining lines, values ahead:
row,EC50,Structure (SMILES)
1,100 to 1000 nM,"CCc1cc(C(=O)c2ccc(OC(F)(F)F)cc2)c(NC(=O)c2ccc(CCC(=O)O)cc2)s1 [Example 116, 3-{4-[5-Ethyl-3-(4-trifluoromethoxy-benzoyl)-thiophen-2-ylcarbamoyl]-phenyl}-propionic acid]"
2,100 to 1000 nM,"CCc1cc(C(=O)c2ccc(OC(C)C)c(Cl)c2)c(NC(=O)CSCC(=O)O)s1 [Example 130, {[3-(3-Chloro-4-isopropoxy-benzoyl)-5-ethyl-thiophen-2-ylcarbamoyl]-methylsulfanyl}-acetic acid]"
3,< 100 nM,"CCc1cc(C(=O)c2ccc(OC(F)(F)F)cc2)c(NC(=O)C(CC)N2CCC[C@@H]2C(=O)O)s1 (stereo partly drawn) [Example 120, (R)-1-{1-[5-Ethyl-3-(4-trifluoromethoxy-benzoyl)-thiophen-2-ylcarbamoyl]-propyl}-pyrrolidine-2-carboxylic acid]"
4,100 to 1000 nM,"CCc1cc(C(=O)c2ccc(OC)cc2)c(NC(=O)CSC(C)C(=O)O)s1 (centres unmarked) [Example 111, 2-{[5-Ethyl-3-(4-methoxy-benzoyl)-thiophen-2-ylcarbamoyl]-methylsulfanyl}-propionic acid]"
5,100 to 1000 nM,"CCc1cc(C(=O)c2ccc(OC(F)(F)F)cc2)c(NC(=O)CN[C@@](C)(CC)C(=O)O)s1 [Example 192, (S)-2-({[5-Ethyl-3-(4-trifluoromethoxy-benzoyl)-thiophen-2-ylcarbamoyl]-methyl}-amino)-2-methyl-butyric acid]"
6,100 to 1000 nM,"CCc1cc(C(=O)c2ccc(OCC(F)(F)F)cc2)c(NC(=O)CSCC(=O)O)s1 [Example 175, ({5-Ethyl-3-[4-(2,2,2-trifluoro-ethoxy)-benzoyl]-thiophen-2-ylcarbamoyl}-methylsulfanyl)-acetic acid]"
